Literature values as cited in patent US20200399681A1, “ASSAY FOR DETECTION OF ANDROGEN RECEPTOR VARIANTS” (Cornell University, priority 2018, published 2020).
Where two headings read alike, the source gives them in different places.

What was measured:
[1] = test system: prostate cancer patients
[2] = test system: prostate cancer patients; remark: listed apart in the source

SMILES: CNC(=O)c1ccc(N2C(=S)N(c3ccc(C#N)c(C(F)(F)F)c3)C(=O)C2(C)C)cc1F [enza, enzalutamide]
- adjusted HR for AR-V7 (TTF, multivariable analysis) ([1]; high AR-V7 expression, adjusted for covariates): cohort (adjusted HR = 2.02
- median OS ([1]; pts with high AR-V7 expression (the shorter OS)): 13.8 months
- time to treatment failure (TTF), median ([1]; pts with high AR-V7 expression (top tertile, >19 copies/mg RNA)): P = 0.046) and median 3.6 months
- median OS ([1]; pts without high AR-V7 expression): 29.1 months
- PSA progression-free survival, median ([2]; AR-V7- (negative) pts): 6.0 months; P < 0.001) &
- overall survival (OS), median ([2]; AR-V7- (negative) pts): not reached
- overall survival (OS), median ([2]; AR-V7-positive pts): 5.5 months
- PSA response rates, AR-V7-positive pts compared with AR-V7- pts ([2]; AR-V7-positive vs AR-V7- pts): positive pts had lower PSA
